Reference: patent publication US20230364074A1, “Compounds and Compositions for Disrupting Programmed Ribosomal Frameshifting” (YALE UNIVERSITY, priority 2020, published 2023)

Legend:
−1 PRF in SARS-CoV-2 = details: prior art statement; cited from earlier work
SARS-CoV-2 FSE (−1 PRF) = assay: cells; assay type: cell-based; details: Severe acute respiratory syndrome coronavirus 2, HEK-293T, 24 h
HEK293T cells [1] = assay: Cell viability in the high-throughput screen (cell nuclei numbers); details: 10 μM compound, cell nuclei numbers
Method: HEK293T cells were plated in 384 well plates at the density of 5,000 cells/well. Cells were treated by 10 μM candidate compounds 30 min before transfection of 15 ng mCherry-FSE-GFP(−1) plasmid DNA in each well. 24 hours after transfection, cell nuclei were stained with Hoechst dye. Cell nuclei, mCherry, and GFP signals were imaged using an automated fluorescent microscope with a 10x objective, and the acquired images were quantified using the CellProfiler image analysis package. Cell nuclei numbers were quantified as the metric for cell viability. Mean GFP and RFP intensity values were measured in all transfected cells, and GFP/mCherry mean intensity ratios were quantified as the metric for PRF efficiency. The mCherry-GFP fusion plasmid and the mCherry-FSE-GFP(0) plasmid were used as positive and negative controls for elevated and reduced GFP/mCherry ratios, respectively.

−1 PRF of SARS-CoV-2 = assay: microbe, parasite or virus in culture; assay type: cell-based
−1 PRF of SARS-CoV = assay: microbe, parasite or virus in culture; assay type: cell-based; details: Severe acute respiratory syndrome coronavirus, read-out: IC50 of −1 PRF inhibition, SARS-CoV
−1 PRF of HCoV-HKU1 = assay: cells; assay type: cell-based; details: read-out: IC50 of −1 PRF inhibition, HCoV-HKU1
−1 PRF of HCoV-OC43 = assay: microbe, parasite or virus in culture; assay type: cell-based; details: Betacoronavirus 1, OC43, read-out: IC50 of −1 PRF inhibition, HCoV-OC43
−1 PRF of hCoV-229E = assay type: cell-based; details: 20 μM merafloxacin (FIG. 2E)
−1 PRF of hCoV-NL63 = assay type: cell-based; details: 20 μM merafloxacin (FIG. 2E)
[2] = system: two-stem pseudoknot FSE of IBV; assay type: cell-based, avian coronavirus infectious bronchitis virus (IBV); details: 20 μM merafloxacin (FIG. 2E)
−1 PRF of HIV-1 = assay type: cell-based, human immunodeficiency virus 1 (HIV-1)
−1 PRF of WNV = assay type: cell-based, west nile virus (WNV)
−1 PRF of EAV = assay type: cell-based, equine arteritis virus (EAV)
[3] = system: −1 PRF of human PEG10 mRNA; assay type: cell-based
HEK293T cells [4] = assay type: cell-based
SARS-CoV-2 = assay: Viral plaque assay, SARS-CoV-2 in Vero E6 cells; assay type: cell-based; details: Severe acute respiratory syndrome coronavirus 2, Vero C1008
SARS-CoV-2 nsp12 / nsp8 = assay type: cell-based
HCoV-OC43 = assay: Viral plaque assay, HCoV-OC43 in MA104 cells; assay type: cell-based; details: MA104 cells (FIGS. 6G-6H)
Method: Plaque formation assays for SARS-CoV-2, HCoV-229E, and HCoV-OC43 were performed in Vero E6, HuH-7.5, and MA104 cells (ATCC), respectively. Briefly, cells were seeded at 2-4×10^5 cells/well in 12-well plates. The following day, cells were incubated with viral stock (multiplicity of infection [MOI]=0.05) for 1 h and washed twice with PBS. Merafloxacin diluted in DMSO was added to the media, mixed briefly, and incubated at 37° C. After 2 d, media were collected, centrifuged, and supernatants were stored at −80° C. To quantify viral titers, the collected media were first serially diluted 10-fold with fresh media. Two hundred microliters of each dilution were added to near-confluent cells in six-well plates and incubated at 37° C. for 1 h with gentle rocking. Subsequently, overlay media (DMEM, 2% FBS, 0.6% Avicel RC-581) was added to each well. After 3 d, cells were fixed with 10% formaldehyde for 30 min, stained with crystal violet for 30 min, and rinsed with deionized water to visualize plaques.

HIV-1 (NL4-3-dNef-GFP) = assay: HIV-1 antiviral assay in Jurkat T cells; assay type: cell-based; details: Jurkat T cells (FIG. 7)
HEK293T cells [5] = details: HEK293T (FIG. 2N)
Vero E6 cells = Vero E6 cells (FIG. 6B)

Compound: CCOC(=O)c1ccccc1NC(=O)N1CCCN(Cc2csc(C)n2)CC1 [MTDB]
- inhibition of −1 PRF in SARS-CoV-2 reporter assays (−1 PRF in SARS-CoV-2): inhibit −1 PRF

Compound: CCNCC1CCN(c2c(F)cc3c(=O)c(C(=O)O)cn(CC)c3c2F)C1 (stereo not shown) [merafloxacin, 1-ethyl-7-[3-(ethylaminomethyl)pyrrolidin-1-yl]-6,8-difluoro-4-oxoquinoline-3-carboxylic acid]
- inhibition at 10 µM (SARS-CoV-2 FSE (−1 PRF); read-out: PERCENT EFFECT 2 (Decreased GFP/Red ratio)): 25%
- activation at 10 µM (SARS-CoV-2 FSE (−1 PRF); read-out: PERCENT EFFECT (Increased GFP/Red Ratio)): -13%
- PERCENT VIABILITY (HEK293T cells [1]): 168.57%
- IC50 (−1 PRF of SARS-CoV-2; Severe acute respiratory syndrome coronavirus 2, dose-dependent, FIG. 2C, read-out: IC50 of −1 PRF inhibition, SARS-CoV-2): ~20 µM
- −1 PRF of in vitro-transcribed SARS-CoV-2 reporter mRNAs (−1 PRF of SARS-CoV-2; in vitro transcribed RNAs (FIG. 2O)): inhibited
- validated effect on −1 PRF in dual luciferase-based PRF reporter assay (−1 PRF of SARS-CoV-2; repurchased screen candidates): inhibitor
- IC50 (−1 PRF of SARS-CoV): ~20 µM
- IC50 (−1 PRF of HCoV-HKU1): 30 µM
- IC50 (−1 PRF of HCoV-OC43): 39 µM
- activity against −1 PRF of hCoV-229E (−1 PRF of hCoV-229E): much weaker activity
- activity against −1 PRF of hCoV-NL63 (−1 PRF of hCoV-NL63): much weaker activity
- sensitivity of IBV FSE [2]: largely insensitive
- inhibition of −1 PRF of HIV-1 (−1 PRF of HIV-1): did not inhibit
- inhibition of −1 PRF of WNV (−1 PRF of WNV): did not inhibit
- inhibition of −1 PRF of EAV (−1 PRF of EAV): did not inhibit
- inhibition of −1 PRF of human PEG10 mRNA [3]: did not inhibit
- effect on upstream FLuc translation (HEK293T cells [4]; 20 μM merafloxacin (FIG. 2F)): did not affect
- effect on ribosome association of the reporter mRNA (HEK293T cells [4]; 80 μM merafloxacin (FIG. 2H)): did not affect
- effect on global translation (polysome profiles) (HEK293T cells [4]; 80 μM merafloxacin for 24 hours (FIG. 2G)): did not affect
- effect on reporter mRNA abundance (HEK293T cells [4]; FIG. 2M): did not affect
- EC50 (SARS-CoV-2; read-out: EC50 of SARS-CoV-2 replication): 2600 nM
- EC90 (SARS-CoV-2; read-out: EC90 of SARS-CoV-2 replication): 12 µM
- relative abundance between nsp12 and nsp8 (SARS-CoV-2 nsp12 / nsp8): substantially reduced
- antiviral activity against HCoV-OC43 (HCoV-OC43): showed antiviral activity
- antiviral activity against an HIV-1 reporter virus (HIV-1 (NL4-3-dNef-GFP)): no antiviral activity
- effect on cell viability (HEK293T cells [5]): did not affect
- cytotoxicity (Vero E6 cells): without causing substantial cytotoxicity
